Values after ≈ are worked out from the molar mass of the structure shown. Read-outs that look alike come from different tables or passages of the source.
What was measured:
[1] = molecular target: T1, Pv-M17 (Plasmodium vivax, UniProt A5K3U9); assay: Recombinant aminopeptidase fluorescence assay (H-Leu-NHMec); assay type: biochemical, P. vivax; settings: Pv M17, Morrison equation; read-out: Ki^(app) ± SEM
T1 construct: made in house
Method: (§1) Inhibition of aminopeptidase activity assays were performed against nine aminopeptidases: the M1 alanyl and M17 leucyl aminopeptidases from P. falciparum (PfA-M1; PfA-M17), P. vivax (Pv-M1; Pv-M17), and P. berghei (Pb-M1; Pb-M17), and three human M1 homologs: LTA4H (OriGene TP307617), ERAP1 (OriGene TP314469), and ERAP2 (Creative BioMart ERAP2-304H). The Plasmodium enzymes were produced recombinantly as described previously ([16], [17]), and the human recombinant enzymes were purchased from commercial suppliers as indicated.
(§2) The concentration of H-Leu-NHMec in the assay was held constant for each enzyme and ranged from 10 to 100 µM, depending on the enzyme. Reactions were measured at 37°C in white 384-well plates in a total volume of 25 or 50 µL using a spectrofluorimeter (BMG FLUOstar) with excitation at 355 nm and emission at 460 nm. The fluorescence signal was continuously monitored until a final steady-state velocity, v, was obtained. Inhibition constants were calculated from biological triplicates made from three different protein preparations.
(§3) Substrate concentrations were selected to allow sensitive detection of enzyme activity while not exceeding the Km for each enzyme. A compound concentration range was selected to obtain a complete inhibition curve (0%–100 %) in biological triplicate. Where possible, the Ki values were calculated by plotting the initial rates versus inhibitor concentration and fitting to the Morrison equation for tight-binding inhibitors in GraphPad Prism (V.8.4.1; non-linear regression method).

[2] = molecular target: Pb-M17 (Plasmodium berghei, UniProt A0A509APA2); assay: as above; assay type: biochemical; settings: Pb M17, Morrison equation; read-out: Ki^(app) ± SEM
Method: as §1, §2, §3

[3] = tested on: Pf3D7; assay: Parasite killing rate (wash-out) assay; assay type: cell-based, P. falciparum; settings: washout after 24 or 48 h of treatment, 10× EC50, parasites traversed a trophozoite stage
Method: Assays were performed as previously described ([7]). […] Parasite cultures incubated for 48 h were fed at 24 h with fresh media containing compound. […] Once thawed, cultures were analyzed using SYBR Green I as described above. Parasite viability was determined as a percentage of vehicle-treated controls, and experiments were performed in four biological replicates.

[4] = tested on: Cam3.1 (MRA1240); assay: microbe, parasite or virus in culture; assay type: cell-based, P. falciparum; settings: Plasmodium falciparum, read-out: EC50 nM (mean)
Method: (§4) In vitro testing was performed using the modified [^3H]hypoxanthine incorporation assay, as previously reported ([34]). The specific mutations in the field isolates (see Table 1, top six strains) have been previously described ([35], [36]), as have the specific mutations in the laboratory-selected Dd2 parasites (see Table 1, remaining five strains) ([36]).

[5] = tested on: NF54; assay: microbe, parasite or virus in culture; assay type: cell-based, P. falciparum; settings: Plasmodium falciparum
Method: as §4

[6] = Kinetic solubility by nephelometry; assay type: physicochemical
Method: Preliminary studies were conducted to assess the in vitro absorption, distribution, metabolism, and excretion (ADME) properties and in vivo mouse exposure of MMV1557817 following single oral dosing. Kinetic solubility was conducted using nephelometry based on a modification of a previously published method ([45]). Briefly, compound was dissolved in DMSO and spiked into either pH 6.5 phosphate buffer (to reflect the pH of the fasted state upper small intestine) or 0.01 M HCl (to reflect gastric pH 1.5–2) with a final DMSO concentration of 1% (vol/vol) and final concentrations ranging from 1 to 100 µg/mL. Samples were analyzed by nephelometry to determine the concentration above which precipitation occurred.

[7] = Metabolic stability in cryopreserved hepatocytes; assay type: in vitro ADME; settings: pH 7.4, read-out: in vitro hepatocyte CLint
Method: Samples were collected over the incubation period, quenched by the addition of an equal volume of acetonitrile, and analyzed using a Waters Acquity UPLC and Xevo G2 QTOF mass spectrometer with positive electrospray ionization under the MS^E mode. The natural log of the substrate concentration was plotted against the incubation time to determine the first-order degradation rate constant which was normalized to the microsomal protein concentration to give the in vitro intrinsic clearance (in vitro CLint, µL/min/mg microsomal protein). […] Cell viability was determined by Trypan Blue exclusion. At various times over the incubation period, samples were quenched with the addition of an equal volume of acetonitrile and analyzed as described above. Metabolite identification was conducted by accurate mass and tandem mass spectrometry (MS/MS) analysis.

[8] = Plasma stability; assay type: in vitro ADME; settings: 37°C
Method: After centrifugation, the supernatant was collected and stored at −80°C until analysis. Sample analysis was conducted using a Waters Acquity UPLC and Quattro Premier mass spectrometer operated in a positive electrospray ionization mode with multiple-reaction monitoring (transition [m/z] 395.27 > 362.28, cone voltage 20 V, CID 7 V). […] The injection volume was 3 µL, and the flow rate was 0.4 mL/min. Concentrations were determined by comparison to a calibration curve prepared in blank plasma and processed in the same way as for the samples.

[9] = Plasma protein binding by ultracentrifugation; assay type: in vitro ADME, human; settings: plasma (10% plasma diluted with PBS), pH 7.4
Method: Human plasma was obtained from the Volunteer Blood Donor Registry (Walter & Eliza Hall Institute, Melbourne, Australia), rat plasma was from male Sprague-Dawley rats (Animal Resource Centre, Perth, Western Australia) and mouse plasma was procured as described above. RPMI-1640 media supplemented with 25 mM HEPES, 2 g/L sodium bicarbonate, and 100 mg/L neomycin were additionally supplemented with 5 […] on the day prior to binding assessment. […] Additional aliquots of spiked matrix were maintained at 37°C for 4.2 h but not centrifuged to serve as controls for stability assessment and to obtain a measure of the total concentration in each matrix. Following centrifugation, aliquots of the protein-free supernatant and the non-centrifuged matrix controls were “matrix matched” by addition of an equal volume of the opposite medium (i.e., either blank buffer or blank matrix) and assayed as described above with comparison to calibration standards prepared in 50% matrix/50% PBS.

[10] = tested on: P. berghei ANKA; assay: P. berghei rodent malaria 4-day Peters' suppressive test; assay type: in vivo, P. berghei (Balb/c mice); settings: 50 mg/kg oral on days 0, 1, 2, 3 post-infection, read on day 4
Method: Female Balb/c mice at 6 weeks of age in groups of 4-5 were infected intraperitoneally with 2 × 10^7 P. berghei ANKA-infected erythrocytes. […] Parasitemia was assessed by visualizing Giemsa-stained thin blood smears by microscopy and a minimum of 1,000 RBCs was counted. […] University Animal Ethics Committee.

Sequence of Pb-M17 (A0A509APA2 entry or part of it): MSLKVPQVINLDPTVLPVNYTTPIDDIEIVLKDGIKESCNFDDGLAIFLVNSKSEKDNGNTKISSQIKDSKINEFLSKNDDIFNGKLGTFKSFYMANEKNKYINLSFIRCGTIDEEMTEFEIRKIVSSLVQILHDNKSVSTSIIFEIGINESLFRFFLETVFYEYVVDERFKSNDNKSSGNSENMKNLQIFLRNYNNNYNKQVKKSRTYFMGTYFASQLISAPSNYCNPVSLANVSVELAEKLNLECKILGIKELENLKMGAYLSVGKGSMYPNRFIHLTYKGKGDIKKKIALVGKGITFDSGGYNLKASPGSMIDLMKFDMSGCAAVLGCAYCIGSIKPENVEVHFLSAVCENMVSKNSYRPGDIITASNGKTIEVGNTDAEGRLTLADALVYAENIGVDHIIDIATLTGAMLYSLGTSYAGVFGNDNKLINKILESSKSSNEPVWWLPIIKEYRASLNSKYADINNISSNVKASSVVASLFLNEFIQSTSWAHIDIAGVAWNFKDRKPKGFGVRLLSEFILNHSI
T1 sequence (A5K3U9 74-621): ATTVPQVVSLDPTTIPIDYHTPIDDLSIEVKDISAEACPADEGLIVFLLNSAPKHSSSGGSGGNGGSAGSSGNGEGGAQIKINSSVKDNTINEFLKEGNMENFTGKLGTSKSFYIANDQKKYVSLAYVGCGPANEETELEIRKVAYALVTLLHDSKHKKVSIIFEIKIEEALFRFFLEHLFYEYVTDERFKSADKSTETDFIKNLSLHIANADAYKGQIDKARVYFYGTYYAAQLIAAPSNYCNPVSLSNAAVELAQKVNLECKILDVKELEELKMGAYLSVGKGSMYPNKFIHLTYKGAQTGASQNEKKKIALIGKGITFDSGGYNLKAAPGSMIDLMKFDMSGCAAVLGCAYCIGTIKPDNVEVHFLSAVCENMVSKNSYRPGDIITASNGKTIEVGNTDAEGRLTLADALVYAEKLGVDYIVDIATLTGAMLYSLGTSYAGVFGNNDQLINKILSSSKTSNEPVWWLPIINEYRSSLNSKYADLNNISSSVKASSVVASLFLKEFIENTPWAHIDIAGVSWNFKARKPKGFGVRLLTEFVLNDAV

Compound: CC(C)(C)CC(=O)NC(C(=O)NO)c1ccc(-c2cc(F)c(F)c(F)c2)cc1 (stereo not drawn) [MMV1557817, N-(2-(hydroxyamino)−2-oxo-1-(3′,4′,5′-trifluoro-[1,1′-biphenyl]-4-yl)ethyl)-3,3-dimethylbutanamide]
- Ki [1]: 208 ± 20 nM
- Ki [2]: 130 ± 7 nM
- parasite survival [3]: less than 10%
- EC50 [4]: 23 nM
- EC50 ([5]; NF54, read-out: unbound EC50): 3.4 nM
- EC50 ([5]; NF54, sensitive strain, read-out: EC50 nM (mean)): 22 nM
- solubility kinetic ([6]; pH 2.0 (0.01 M HCl)): 12.5 to 25 µg/mL (≈ 31.7 to 63.4 µM)
- solubility kinetic ([6]; pH 6.5 phosphate buffer): 12.5 to 25 µg/mL (≈ 31.7 to 63.4 µM)
- hepatocyte CLint at 1 µM ([7]; human cryopreserved hepatocytes): 2 µL/min/1e6 cells
- hepatocyte CLint at 1 µM ([7]; rat cryopreserved hepatocytes): 4 µL/min/1e6 cells
- remaining at 4 h ([8]; human plasma): 97%
- remaining at 4 h ([8]; mouse plasma): 93%
- fraction unbound at 4.2 h ([9]; Sprague-Dawley (rat plasma), human, summary in text over the plasma species tested, read-out: bound to plasma proteins): 0.01 to 0.02
- fraction unbound at 4.2 h ([9]; human plasma, read-out: Plasma protein binding (converted)): 0.012
- parasite reduction compared with vehicle control [10]: 95.4%
